The values below come from PubChem BioAssay AID1996.

Converted amounts (≈) assume the structure as drawn. Some results are limits rather than exact numbers.

The conditions of the series: buffer; pH 7.4; 200.0 µM.
Take `Cc1cc2ccccn2c1C(=O)Nc1cccc(Cl)c1`: the solubility (kinetic) is less than 0.3 µg/mL.
The compound `COc1ccc(/C=C2\N=C(c3ccc(C)cc3)OC2=O)cc1` showed a kinetic solubility of 3.5 µg/mL (≈ 11.9 µM).
For `Cc1coc2cc3oc(=O)c(CCC(=O)NCc4ccccn4)c(C)c3cc12` the value was 3.4 µg/mL (≈ 9.03 µM); for `Cc1ccc(C(=O)NCCCNC(=O)c2ccc(C)nc2)cc1`, greater than 46.7 µg/mL.
For `Cc1nc(-c2ccc(Cl)cc2)sc1C(=O)O` the value was 33.2 µg/mL (≈ 131 µM); for `O=c1[nH]c(-c2ccc(O)cc2)nc2scc(-c3cccs3)c12`, 0.5 µg/mL (≈ 1.53 µM); for `COc1ccc(Br)cc1/C=C/C(=O)NCC(=O)O`, greater than 47.1 µg/mL.
To `CCc1cccc(C)c1N=Cc1c(O)c2ccccc2oc1=O` belongs 0.9 µg/mL (≈ 2.93 µM); to `Cc1ccc(C(=O)C2=C(O)C(=O)N(Cc3ccco3)C2c2ccc(N(C)C)cc2)o1` (centres undefined), greater than 61 µg/mL.
In the case of `CCCC(=O)C1=C(N2CCCC2)CC(C)(C)C(C(=O)OC)C1=O` (centres undefined), the solubility (kinetic) stood at 44.9 µg/mL (≈ 140 µM).
`Nc1cc(Cl)ccc1C(=O)OCC(=O)N1CCOCC1` returned a solubility (kinetic) greater than 44.8 µg/mL.
For `CC(=O)C1=C(O)C(=O)N(c2ccccn2)C1c1cccc(F)c1` (centres undefined) the value was greater than 46.8 µg/mL; for `O=[N+]([O-])c1ccc(NCc2ccncc2)cc1`, greater than 34.4 µg/mL; for `Cc1nn(C)c(C)c1NC(=O)CCl.Cl`, greater than 35.7 µg/mL.
To `CCOC(=O)c1ccc(NC(=O)C2CC3CCC2C3)cc1` (centres undefined) belongs 22.2 µg/mL (≈ 77.3 µM).
Turning to `CCCCCCN=C1CC(C)(C)CC(=O)/C1=C(/O)CCC`, the solubility (kinetic) came out at 19.5 µg/mL (≈ 66.5 µM).
`Oc1nc(-c2ccc(Cl)cc2)n2ccncc12`: the kinetic solubility is greater than 36.9 µg/mL.
For `CCNS(=O)(=O)c1ccc(CCC(=O)NCc2ccncc2)cc1`, the kinetic solubility was greater than 52.1 µg/mL.
`CCCC(=O)NC(=S)Nc1ccc(CN2CCOCC2)cc1` had a solubility (kinetic) greater than 48.2 µg/mL.
`C[C@H](NC(=O)[C@@H]1Cc2ccccc2CN1)C(=O)NC1CCCC1` displayed a solubility (kinetic) greater than 47.3 µg/mL.
`Cn1c(O)c(C=Nc2cccc(C(F)(F)F)c2)c(=O)n(C)c1=O` gave a solubility (kinetic) of 10.6 µg/mL (≈ 32.4 µM).
To `Cc1ccc(S(=O)(=O)N2CCNC(=O)C2)c(C)c1` belongs greater than 40.2 µg/mL; to `CC1=C(C(=O)N(C)C)C(c2ccc(N3CCOCC3)cc2)NC(=O)N1` (centres undefined), 49.8 µg/mL (≈ 145 µM).
To `COC(=O)[C@H](Cc1ccccc1)NC(=O)N(C)Cc1ccccc1` belongs greater than 49 µg/mL.
For `CCCC(=O)N1CCN(c2nc3ccc(CC)cc3s2)CC1` the value was 13.5 µg/mL (≈ 42.5 µM); for `S=c1[nH]nc(C2CCCCC2)o1`, greater than 27.6 µg/mL; for `Cc1cc(OCCN2CCOCC2)ccc1C(C)C.Cl`, 34.2 µg/mL.
Take `CN=C(c1ccco1)n1c(=S)nc(-c2ccco2)n(C)c1=S`: the solubility (kinetic) was found to be 39.6 µg/mL (≈ 119 µM).
As for `Cc1noc(-c2ccccc2)c1NC(=O)Nc1ccc(Cl)cc1`, the solubility (kinetic) was 3.1 µg/mL (≈ 9.46 µM).
Consider `CC(C)c1ccc(NC(=O)C2CC3CCC2C3)cc1` (centres undefined), for which the solubility (kinetic) amounted to 2.1 µg/mL (≈ 8.16 µM).
For `CCC(=O)c1ccc(OCC(O)CNC2CCCC2)cc1` (centres undefined) the value was 35.6 µg/mL (≈ 122 µM); for `CCOCCOc1cccc(C(=O)NC(c2ccccc2)C(C)C)c1` (centres undefined), 6.2 µg/mL (≈ 18.2 µM); for `CC(=O)Nc1ccc2nc(NC(=O)c3cccnc3)sc2c1`, 7.4 µg/mL (≈ 23.7 µM).
Compound `Cc1ccnc(N2CCC(C(=O)NCc3ccc(F)cc3)CC2)n1` showed a kinetic solubility of 16.7 µg/mL (≈ 50.9 µM). Against the preceding compound, the solubility kinetic is about 2.3-fold higher.
Turning to `COc1ccc(NC(=O)c2ccccc2NC(=O)c2ccco2)cc1`, the solubility (kinetic) was less than 0.4 µg/mL.
Consider `Fc1ccc(NC(=S)Nc2cccnc2)cc1Cl`, for which the kinetic solubility was greater than 42.3 µg/mL.
As for `O=C(Nc1ccc(OC(F)(F)F)cc1)Oc1ccccc1N1CCCCC1`, the solubility (kinetic) worked out at 9.7 µg/mL (≈ 25.5 µM).
`CCC(CC)C(=O)Nc1ccc(-c2cn3cccnc3n2)cc1` had a kinetic solubility of 43.4 µg/mL (≈ 141 µM).
`COc1ccc(C2(O)C(=O)Nc3ccc(C)cc32)cc1` (centres undefined): the kinetic solubility is greater than 40.4 µg/mL.
For `Cc1cc(C(=O)OCC(=O)NCc2ccccc2Cl)c(C)o1` the value was 2.2 µg/mL (≈ 6.84 µM); for `Cn1c(=O)c2c(O)c(C=Nc3ccc(F)cc3)c(=O)n(C)c2n(C)c1=O`, 32.6 µg/mL (≈ 91 µM); for `O=C(NCCCN1CCCC1=O)c1cc2c(s1)CCCCC2`, greater than 48.1 µg/mL.
With `Cn1nccc1NC(=O)c1nccnc1C(=O)O`, the kinetic solubility was greater than 37.1 µg/mL.
For `CC(=O)N(C)c1ccc(NC(=S)NC(=O)/C=C/c2ccco2)cc1` the value was 11.6 µg/mL (≈ 33.8 µM); for `COc1ccc(OCC(=O)N2CCc3ccccc3C2)cc1`, 29.8 µg/mL (≈ 100 µM).
`Cc1[nH]c2ccc(C(=O)NCCCN3CCCCC3)cc2c1C` showed a kinetic solubility greater than 47 µg/mL.
For `Cc1cc(NC(=O)COC(=O)/C=C/c2ccc(C)o2)no1`, the kinetic solubility turned out to be 1.8 µg/mL (≈ 6.2 µM).
`O=C(Nc1ccccc1C(=O)Nc1ccncc1)c1ccccc1` came in with a kinetic solubility of 6 µg/mL (≈ 18.9 µM).
To `CC(=O)c1ccc(N2CCN(CC(O)c3ccccc3)CC2)cc1` (centres undefined) belongs greater than 48.7 µg/mL; to `COc1ccc(NC(=O)c2oc3ccccc3c2CSC)cc1S(=O)(=O)N1CCOCC1`, 3.8 µg/mL (≈ 7.97 µM); to `CN(C)CCN(Cc1cccs1)c1ccccn1.Cl`, greater than 44.7 µg/mL.
To `CCOc1cccc(C(=O)NC2=NCCS2)c1` belongs 26.1 µg/mL (≈ 104 µM).
Regarding `CCCS(=O)(=O)N1CCCC(C(=O)NCCc2ccccc2)C1` (centres undefined), the solubility (kinetic) is 48.5 µg/mL (≈ 143 µM).
To `CN(C)C(CNC(=O)c1cc2ccccc2o1)c1ccco1` (centres undefined) belongs greater than 44.8 µg/mL; to `Cn1cc(CCC(=O)NC2CC2)c2ccccc21`, greater than 36.3 µg/mL.
In the case of `N#CC1=C(N)Oc2cc(N)ccc2C1c1ccc(Cl)cc1` (centres undefined), the kinetic solubility worked out at 3.4 µg/mL (≈ 11.4 µM).
Compound `Cc1cccc(N2C(=O)CSC23CCCCC3)c1` gave a solubility (kinetic) of 20.3 µg/mL (≈ 77.7 µM).
To `COc1ccccc1C(=O)NCC(=O)N1CCN(C/C=C/c2ccccc2)CC1` belongs greater than 59 µg/mL; to `Cc1ccc(NC(=O)C(C)OC(=O)/C=C/c2ccccc2)cc1` (centres undefined), 4 µg/mL (≈ 12.9 µM); to `O=C(CN1CCN(c2ccccc2F)CC1)NC(=O)NC1CCCCC1`, greater than 54.4 µg/mL.
As for `C/C(Cn1ncc(N2CCOCC2)c(Cl)c1=O)=N\O`, the solubility (kinetic) was greater than 43 µg/mL.
To `C[N+](C)(C)Cc1ccccc1.[Cl-]` belongs greater than 27.9 µg/mL; to `O=C(Nc1ccccc1)OC1CCCCc2cccnc21` (centres undefined), 41.6 µg/mL (≈ 147 µM).
With `COc1ccc(NC(=O)c2cccc(NS(=O)(=O)c3ccccc3)c2)cc1`, the solubility (kinetic) was found to be 34.2 µg/mL (≈ 89.4 µM).
Consider `CC(C)(C)c1ccc(C(CC(=O)O)NC(=O)Cc2ccccc2)cc1` (centres undefined), for which the kinetic solubility came out at 49.3 µg/mL (≈ 145 µM).
As for `COc1ccc(OC)c(CNC(=O)C2CCN(S(C)(=O)=O)CC2)c1`, the solubility (kinetic) was greater than 53.5 µg/mL.
The compound `O=Cc1c(NCCCN2CCCC2=O)c2ccccc2[nH]c1=O` gave a kinetic solubility greater than 47 µg/mL.
For `O=Cc1c(NCCc2ccc(F)cc2)c2ccccc2[nH]c1=O` the value was 34.8 µg/mL (≈ 112 µM); for `Cc1ccc(CNC(=O)N2CCN(c3ccc(C)cc3)CC2)cc1`, 4.1 µg/mL (≈ 12.7 µM).
For `Cc1cc(C(=O)NC(Cc2c[nH]c3ccccc23)C(=O)O)c(C)o1` (centres undefined) the value was 41.6 µg/mL (≈ 127 µM); for `Cc1nn(C)c(C)c1CNC(=O)Nc1ccc2c(c1)OCO2`, greater than 45.3 µg/mL.
To `S=c1[nH]ccn1-c1ccc(Cl)cc1` belongs 29.2 µg/mL (≈ 139 µM); to `CCOC(=O)c1cn(CC#N)c2cc(F)c(F)cc2c1=O`, greater than 43.8 µg/mL; to `CCOc1ccc(C(=O)NNC(=O)CN2C(=O)C3CC=CCC3C2=O)cc1OC` (centres undefined), greater than 60.2 µg/mL.
In the case of `Cc1nc(SCc2c(Cl)cccc2Cl)nc(OC(=O)N(C)C)c1C`, the kinetic solubility is 2.2 µg/mL (≈ 5.69 µM).
For `COc1ccc(Br)cc1CN1CCSCC1` the value was 29.3 µg/mL (≈ 96.9 µM); for `COc1ccc(S(=O)(=O)N(C)CC(=O)N2CCCC2)cc1OC`, greater than 51.4 µg/mL; for `CN(C)/C=N/NC(=O)C1Cc2c(ccc3ccccc23)O1` (centres undefined), greater than 42.5 µg/mL.
To `COc1ccc2cc(C(C)C(=O)N3CCC(C(N)=O)CC3)ccc2c1` (centres undefined) belongs greater than 51.1 µg/mL.
To `COc1ccccc1NC(=O)COC(=O)/C=C/c1cccs1` belongs 4.4 µg/mL (≈ 13.9 µM); to `O=C1c2ccccc2C(=O)N1C(CO)C(O)c1ccc([N+](=O)[O-])cc1` (centres undefined), greater than 51.3 µg/mL; to `O=C(Cc1ccccc1)NCC(=O)OCc1ccccc1F`, 17.3 µg/mL (≈ 57.4 µM).
The compound `CC(C)C(NC(=O)c1ccco1)C(=O)NC1CCCCCC1` (centres undefined) came in with a kinetic solubility of 37.8 µg/mL (≈ 123 µM).
Turning to `O=C(Nc1ccc([N+](=O)[O-])cc1)c1cc(Cl)sc1Cl`, the kinetic solubility is less than 0.3 µg/mL.
Regarding `Cc1ccsc1C(=O)NCC(C)(C)N1CCOCC1`, the solubility (kinetic) is greater than 42.4 µg/mL.
For `CCCOc1c(Cl)cc(C(=O)NC)cc1OC` the value was greater than 38.7 µg/mL.
For `CCN1CCN(S(=O)(=O)c2ccc(C(C)(C)C)cc2)CC1` the value was 45.6 µg/mL (≈ 147 µM); for `O=C(COC(=O)c1cnccn1)Nc1ccccc1-c1ccccc1`, greater than 50 µg/mL.
To `O=C(c1ccc(S(=O)(=O)Nc2ccccc2Cl)cc1)N1CCCC1` belongs greater than 54.7 µg/mL; to `O=[N+]([O-])c1ccc(SCCc2ccncc2)cc1`, 31.5 µg/mL (≈ 121 µM); to `O=C(CCl)Nc1ncc(S(=O)(=O)c2ccc([N+](=O)[O-])cc2)s1`, greater than 54.3 µg/mL.
The compound `CCOc1ccc(CNc2ccc(N3CCCC3)cc2)cc1` displayed a solubility (kinetic) of 3.1 µg/mL (≈ 10.5 µM).
For `O=C(O)CSCC(=O)NCc1c(Cl)cccc1Oc1ccccc1` the value was 52 µg/mL (≈ 142 µM); for `CCc1ccccc1NC(=S)N(CCN(C)C)C(C)c1cccnc1` (centres undefined), 50.9 µg/mL (≈ 143 µM); for `NC(=O)COC(=O)c1ccc2c(c1)S(=O)(=O)c1ccccc1C2=O`, 7.5 µg/mL (≈ 21.7 µM).
For the compound `CC(C)c1nc(SCC(=O)NC(=O)NC(C)(C)C)n[nH]1`, the kinetic solubility is greater than 44.9 µg/mL.
To `Nc1ccccc1SCc1c(Cl)cccc1Cl` belongs less than 0.6 µg/mL; to `COc1ccc(C2C3(C#N)C(N)=NC(OC)(OC)C23C#N)cc1` (centres undefined), greater than 46.8 µg/mL; to `Cc1ccc(N(CC(=O)N2CCCC2)S(C)(=O)=O)cc1C`, greater than 46.6 µg/mL.
For `COc1ccc(/C(N)=N/OC(=O)CCC2CCCC2)cc1OC`, the kinetic solubility worked out at 8 µg/mL (≈ 25 µM).
For `Cc1ccc(C(C)C)cc1S(=O)(=O)Nc1ccncc1` the value was 3.3 µg/mL (≈ 11.4 µM); for `CC(=O)Nc1ccc(SCC(=O)Nc2ccc3c(c2)OCCO3)cc1`, greater than 53.8 µg/mL.
For `O=[N+]([O-])c1cnc2ccccn12` the value was 22.1 µg/mL (≈ 135 µM); for `CCOC(=O)c1ccc(NC(=O)N2CCOCC2)cc1`, greater than 41.7 µg/mL.
